Reference: publication PMC11714206, “Massively Parallel Screening of Toll/Interleukin‐1 Receptor (TIR)‐Derived Peptides Reveals Multiple Toll‐Like Receptors (TLRs)‐Targeting Immunomodulatory Peptides” (Advanced Science, 2024)

Biological target: T1, MAL^TIR (Homo sapiens, UniProt P58753)
T1 construct: MAL (residues 79–221); 6xHis; made in house; host or cells: E. coli BL21 (DE3)
Experiment: T‐Surf phage library (P8 and P3) selection against MAL^TIR, four rounds, NGS read counts
Type: binding
Conditions: for P3_MAL Rank (after) / P3_MAL Rank (before): P3 library; for P8_MAL Rank (after) / P8_MAL Rank (before): P8 library; for Population: 4th round of selection against MAL TIR, share of NGS reads
Procedure: T‐Surf libraries were screened against the immobilized TIR domains of two major human TLR adaptor proteins, MAL^TIR and MyD88^TIR, allowing cross‐species selection of TIR‐binding motifs with 190 946 TIR‐derived peptides in a single binding assay (Scheme 1). Enriched phage pools from the fourth round of selection were analyzed using NGS after barcoding the peptide‐coding regions of the phage pools.
Phage display screening was performed by coating two wells of a 96‐well plate (Maxisorp, Thermo Fisher Scientific) with 100 µL of 5 µg mL^−1 TIR domains overnight; then, the coated wells were blocked with 200 µL of blocking buffer (0.2% BSA in PBS) and set aside for 1 h at 4 °C with gentle shaking. Next, 100 µL of the phage library was added to the wells and incubated for 1 h at room temperature (RT; 20 – 22 °C) with gentle shaking. The plate was washed four times with PBS containing 0.5% Tween‐20; the bound phages were eluted by adding 100 µL of 100 mM HCl to each well. The elute was neutralized with 10 µL of 1.0 M Tris‐HCl (pH 11.0). E. coli TG1 cells were grown to the log phase (A600 = ≈0.6), and 1 mL of the culture was incubated with 100 µL of the eluted phages for 30 min at 37 °C, with shaking at 200 rpm. Next, 1 µL of M13KO7 helper phages was added, followed by incubation for 45 min at 37 °C, with shaking. Subsequently, the cells were transferred to 25 mL of 2× yeast extract tryptone/carbenicillin/kanamycin medium and incubated overnight at 37 °C with shaking at 200 rpm. The amplified phages were precipitated with 20% PEG‐8000/2.5 M NaCl to be used for the next round of selection.
The naïve T‐Surf libraries in P8 and P3 and the enriched phage pools after four rounds were barcoded for NGS as previously described.^[ [59] ^] Briefly, 5 µL of the phage pool was used as a template for 20 cycles of a 50 µL PCR reaction using […] each of forward and reverse barcoded primers and PrimeSTAR Max DNA Polymerase. The PCR products were purified using Expin Gel SV (GeneAll). The NGS samples were quantified using qPCR, following the qPCR Quantification Protocol Guide (KAPA Library Quantification kits for Illumina Sequencing Platform), and qualified using the TapeStation High Sensitivity D1000 ScreenTape (Agilent Technologies). The indexed libraries were further sequenced by Macrogen (Seoul, Republic of Korea) using the NovaSeq platform (Illumina) with 100 bp paired‐end reads. The reads were demultiplexed by barcodes and filtered for an average Phred quality score of at least 30, followed by trimming the flanking consensus sequences using Cutadapt (version 2.3). Peptide sequence populations were analyzed according to the read counts.

[1] = P3_MAL: rank by count after grouping
[2] = P3_MAL: rank by count before grouping
[3] = selection against MAL TIR, rank by count after grouping
[4] = selection against MAL TIR, rank by count before grouping
[5] = P8_MAL: rank by count after grouping
[6] = P8_MAL: rank by count before grouping
[7] = 4R selection against MAL, rank after grouping
[8] = 4R selection against MAL, rank before grouping
[9] = P3_MAL pool: P3 T-Surf phage library
[10] = selection against MAL, rank after grouping
[11] = selection against MAL, rank before grouping
[12] = selection against MAL, rank by count after grouping
[13] = selection against MAL, rank by count before grouping

T1 sequence (P58753 79-221): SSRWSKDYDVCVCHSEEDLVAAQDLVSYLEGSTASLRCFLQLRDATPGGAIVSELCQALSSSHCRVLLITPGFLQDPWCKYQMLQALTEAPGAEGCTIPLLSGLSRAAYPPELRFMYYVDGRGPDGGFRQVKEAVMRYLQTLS

For YTALTKSGVHAFRDND, the “Rank (after)” value [1] was 475 and the “Rank (before)” value [2] was 1552.

SSFRDGLWRLLELRKK was tested, and the “P3_MAL Rank (after)” value [3] was 269 and the “P3_MAL Rank (before)” value [4] was 3129.

In the case of RLMKWKEALHPFHSWV, the “Rank (after)” value [1] is reported as 180 and the “Rank (before)” value [2] is reported as 2553.

In the case of KMQKWKDALYEAAKLG, the “P3_MAL Rank (after)” value [3] is reported as 250 and the “P3_MAL Rank (before)” value [4] is reported as 3687.

With KLLWEKCTFFLPSLSR the “Rank (after)” value [5] was 429 and the “Rank (before)” value [6] was 2726.

ESILNQLRRSSQSFAT was tested, and the “P3_MAL Rank (after)” value [3] was 260 and the “P3_MAL Rank (before)” value [4] was 2056.

VRHSFAGYRYDALNRL was tested, and the “P3_MAL Rank (after)” value [3] was 197 and the “P3_MAL Rank (before)” value [4] was 1698.

For PESGKLASGAGKSGQT, the “P3_MAL Rank (after)” value [7] was 609 and the “P3_MAL Rank (before)” value [8] was 2638.

In the case of RGFLSHLSNLLQAKDH, the “P3_MAL Rank (after)” value [3] is reported as 205 and the “P3_MAL Rank (before)” value [4] is reported as 2392.

With RNFMAYLFQALAHKGI the “P8_MAL Rank (after)” value [3] was 202 and the “P8_MAL Rank (before)” value [4] was 2241.

For TFLIHQNNARMHANIL, the “P8_MAL Rank (after)” value [3] was 253 and the “P8_MAL Rank (before)” value [4] was 2545.

With EWIREQLRRSSQSIAN the “P3_MAL Rank (after)” value [3] was 222 and the “P3_MAL Rank (before)” value [4] was 801.

In the case of RLLKWKEALTAAANLSGW, the “P3_MAL Rank (after)” value [7] is reported as 642 and the “P3_MAL Rank (before)” value [8] is reported as 2524.

YAFTGHLHRYLVQRGI gave a Population [9] of 0.00338%.

With FMSHLYQGLKNRGIFTF the “Rank (after)” value [1] was 113 and the “Rank (before)” value [2] was 201.

In the case of AFLYTVLINLTHTTYF, the “P8_MAL Rank (after)” value [10] is reported as 517 and the “P8_MAL Rank (before)” value [11] is reported as 1886.

In the case of WFYESLVSLILRDTIV, the “Rank (after)” value [5] is reported as 122 and the “Rank (before)” value [6] is reported as 1299.

For LGKPGVTDEAQETGSL, the “Rank (after)” value [1] was 95 and the “Rank (before)” value [2] was 95.

LFFWESLKPLPRRDGR was tested, and the “Rank (after)” value [5] was 467 and the “Rank (before)” value [6] was 2088.

CVYRPSASLSGAAWR was tested, and the “P3_MAL Rank (after)” value [10] was 568 and the “P3_MAL Rank (before)” value [11] was 1321.

With PSEIRKQTGSLPKAFA the “P3_MAL Rank (after)” value [7] was 579 and the “P3_MAL Rank (before)” value [8] was 2665.

SSFRERLWRLLELRKK was tested, and the “Rank (after)” value [1] was 128 and the “Rank (before)” value [2] was 3190.

For TFLGHLLNALVQTDIL, the “P8_MAL Rank (after)” value [10] was 508 and the “P8_MAL Rank (before)” value [11] was 2607.

With ALFWEQLRTVLGKLTM the “Rank (after)” value [5] was 435 and the “Rank (before)” value [6] was 1924.

For RGFLAICVIICRRKI, the “Rank (after)” value [1] was 390 and the “Rank (before)” value [2] was 2406.

AFFWAQLKQLLRSDGR was tested, and the “P8_MAL Rank (after)” value [7] was 629 and the “P8_MAL Rank (before)” value [8] was 1610.

For AFLYTFLNTLTHPTNF, the “P8_MAL Rank (after)” value [3] was 209 and the “P8_MAL Rank (before)” value [4] was 1867.

With WFYARLVRLILRDPKV the “Rank (after)” value [5] was 419 and the “Rank (before)” value [6] was 1135.

With YFLQFLVFRRLGNEYV the “P8_MAL Rank (after)” value [7] was 656 and the “P8_MAL Rank (before)” value [8] was 1513.

With YAFTSHLSRYLVQRGV the “P3_MAL Rank (after)” value [3] was 223 and the “P3_MAL Rank (before)” value [4] was 1476.

FMSHLYQGLLKGLIIT was tested, and the “P3_MAL Rank (after)” value [12] was 681 and the “P3_MAL Rank (before)” value [13] was 1202.

With WFYDRLVSLFLRDPKV the “Rank (after)” value [5] was 476 and the “Rank (before)” value [6] was 1140.

In the case of KQWLNAPTAAANLSGW, the “P3_MAL Rank (after)” value [7] is reported as 664 and the “P3_MAL Rank (before)” value [8] is reported as 3635.

For WFYERLVSLLMRDTKV, the “Rank (after)” value [5] was 152 and the “Rank (before)” value [6] was 1193.

With KLFWEKFKFFRPSLSC the “P8_MAL Rank (after)” value [3] was 226 and the “P8_MAL Rank (before)” value [4] was 2709.

With WFYERLVNLNLRDTKV the “Rank (after)” value [5] was 140 and the “Rank (before)” value [6] was 1242.

With LFFWESLKQLLRSDG the “Rank (after)” value [5] was 178 and the “Rank (before)” value [6] was 2104.

For RNLVAYQFQALPNKGI, the “P8_MAL Rank (after)” value [7] was 658 and the “P8_MAL Rank (before)” value [8] was 2245.

WFYERLVSLFLRDTKV was tested, and the Population (P8_MAL pool: P8 T-Surf phage library) was 0.00371%.

With FLNFRGLVVRNYFLVH the “P3_MAL Rank (after)” value [12] was 720 and the “P3_MAL Rank (before)” value [13] was 1146.

For RNFVRICFRRWRIKA, the “P8_MAL Rank (after)” value [12] was 687 and the “P8_MAL Rank (before)” value [13] was 2235.

With RFWERLRYMMPDSSL the “Rank (after)” value [1] was 449 and the “Rank (before)” value [2] was 2320.

In the case of YFLHSLLISLTDPAYI, the “Rank (after)” value [5] is reported as 452 and the “Rank (before)” value [6] is reported as 1510.

In the case of KMQQWQDALYEAANLS, the “P3_MAL Rank (after)” value [12] is reported as 691 and the “P3_MAL Rank (before)” value [13] is reported as 3654.

In the case of AFFWARLQSVLGNPTM, the “P8_MAL Rank (after)” value [3] is reported as 243 and the “P8_MAL Rank (before)” value [4] is reported as 1654.

With DPQDLEWFYERLFSQM the “P8_MAL Rank (after)” value [3] was 234 and the “P8_MAL Rank (before)” value [4] was 876.

With KCFWVTLLYALHRNPR the “Rank (after)” value [1] was 465 and the “Rank (before)” value [2] was 3483.

For AFFWEHLRPLLGKQAM, the “P8_MAL Rank (after)” value [7] was 622 and the “P8_MAL Rank (before)” value [8] was 1711.

With YFLHFLLFNRPETNYI the “P8_MAL Rank (after)” value [7] was 597 and the “P8_MAL Rank (before)” value [8] was 1467.

For LSVESWRQALEKAGQL, the “Rank (after)” value [1] was 392 and the “Rank (before)” value [2] was 2181.

For AFFWAQPKSVLGNPTV, the “Rank (after)” value [5] was 103 and the “Rank (before)” value [6] was 1645.

In the case of DWFREQLRPALKERLP, the “Rank (after)” value [1] is reported as 125 and the “Rank (before)” value [2] is reported as 787.

FAFTGHLHRYLVQRGV showed a Population [9] of 0.00338%.

For AFFCAQLKRVLGNPTM, the “Rank (after)” value [5] was 102 and the “Rank (before)” value [6] was 1724.

In the case of WFYERLVSLMLRDKKV, the “Rank (after)” value [5] is reported as 172 and the “Rank (before)” value [6] is reported as 1269.

In the case of SSFREGLASAGTEQK, the “Rank (after)” value [1] is reported as 156 and the “Rank (before)” value [2] is reported as 1037.

In the case of WFYERQVSLILRDTNV, the “Rank (after)” value [5] is reported as 98 and the “Rank (before)” value [6] is reported as 1259.

In the case of DHHLDLPLAKRLNRKFW, the “P3_MAL Rank (after)” value [10] is reported as 492 and the “P3_MAL Rank (before)” value [11] is reported as 1922.

WFYERLVSLIRRDTQV was tested, and the “Rank (after)” value [5] was 106 and the “Rank (before)” value [6] was 1220.

With RGFLSHLRHHLQAKD the “P3_MAL Rank (after)” value [7] was 648 and the “P3_MAL Rank (before)” value [8] was 2376.

For WFWVKLLYALTYRPGI, the “P3_MAL Rank (after)” value [7] was 651 and the “P3_MAL Rank (before)” value [8] was 1227.

RNNFIGHLYQALYRI was tested, and the “P8_MAL Rank (after)” value [12] was 676 and the “P8_MAL Rank (before)” value [13] was 2274.

In the case of RHNFIGYLYQALYRIG, the “P8_MAL Rank (after)” value [12] is reported as 723 and the “P8_MAL Rank (before)” value [13] is reported as 2174.

For WSYERLVRLILRDTKV, the “P8_MAL Rank (after)” value [10] was 539 and the “P8_MAL Rank (before)” value [11] was 1406.

For RNFVAYLFKALANTGI, the “P8_MAL Rank (after)” value [10] was 526 and the “P8_MAL Rank (before)” value [11] was 2219.
